Calls of active or inactive are those of the source.
Legend:
[1] = biological target: Genome polyprotein (dengue virus type 2, UniProt P29990); experiment: flavivirus cap methylation enzyme inhibition – biochemical, confirmation dose response, primary screen (AID 588689); type: functional
[2] = system: HEK293; experiment: EBV LMP1 TES2 canonical NF-kB signalling blockers – cell-based, HEK293, luciferase, cherry-pick, dose response (AID 588343); type: functional; conditions: Homo sapiens
[3] = reduction of Shn3 3'UTR-driven luciferase in osteoblasts – cell-based, Clone20 osteoblasts, firefly luciferase, cherry-picked, dose response (AID 624132); type: functional;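 also: firefly luciferase luminescence from reporter carrying the Shn3 3'UTR in osteoblasts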
[4] = loss of viability in HepG2 cells – cell-based, CellTiter-Glo, cherry-picked, cytotoxicity control for Shn3 inhibitor project, dose response (AID 624134); type: functional
[5] = non-specific 3'UTR reporter inhibition in Clone20-Shn3RL – cell-based, Renilla luciferase, cherry-picked, counter-screen for Shn3 inhibitor project, dose response (AID 624133); type: functional
[6] = biological target: Paired box protein Pax-8 (Homo sapiens, UniProt Q06710); experiment: PAX8 transcriptional activity inhibition in RMG-I – RMG-I cells, luciferase, cherry-pick, dose response (AID 687027); type: functional, cell-based;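 also: luciferase reporter driven by Pax8 target thyroperoxidase promoter measured by SteadyGlo luminescence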
Chain of Paired box protein Pax-8 (Q06710 whole entry): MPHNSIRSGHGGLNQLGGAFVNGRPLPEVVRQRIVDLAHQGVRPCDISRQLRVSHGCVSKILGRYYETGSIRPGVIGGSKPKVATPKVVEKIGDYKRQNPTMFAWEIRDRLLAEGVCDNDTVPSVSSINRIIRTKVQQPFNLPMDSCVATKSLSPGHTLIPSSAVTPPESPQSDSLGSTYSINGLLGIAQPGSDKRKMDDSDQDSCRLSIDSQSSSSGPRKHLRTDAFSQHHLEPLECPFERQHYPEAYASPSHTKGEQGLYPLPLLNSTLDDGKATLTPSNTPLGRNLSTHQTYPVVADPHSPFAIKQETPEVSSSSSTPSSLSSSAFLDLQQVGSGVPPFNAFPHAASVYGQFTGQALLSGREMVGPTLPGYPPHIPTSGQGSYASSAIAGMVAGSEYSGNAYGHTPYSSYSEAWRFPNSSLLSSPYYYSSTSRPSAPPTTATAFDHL

[7] = OVCAR-3 cell viability loss – plate reader, dry powder samples, PAX8 inhibitor project, dose response (AID 743044); type: functional, cell-based
[8] = general cell-killing toxicity readout – plate reader, dry powder samples, cytotoxicity control for PAX8 inhibitor project, dose response (AID 743021); type: functional, cell-based
[9] = OVCAR8 cell viability loss – plate reader, dry powder samples, PAX8 project, dose response (AID 743197); type: functional, cell-based; conditions: OVCAR-8
[10] = Luminescence Cell-Based Dose Retest to Confirm Inhibitors of Cancer Stem Cells. [Related pubchem assays (depositor defined):AID2717, AID2721]; type: functional; conditions: Homo sapiens
[11] = biological target: Glucose-6-phosphate 1-dehydrogenase (Homo sapiens, UniProt P11413); experiment: inhibition of Homo sapiens G6PD, dose series – biochemical, fluorescence, selectivity assay for P. falciparum G6PD inhibitor project, dose response (AID 504792); type: functional
Chain of Glucose-6-phosphate 1-dehydrogenase (P11413 whole entry): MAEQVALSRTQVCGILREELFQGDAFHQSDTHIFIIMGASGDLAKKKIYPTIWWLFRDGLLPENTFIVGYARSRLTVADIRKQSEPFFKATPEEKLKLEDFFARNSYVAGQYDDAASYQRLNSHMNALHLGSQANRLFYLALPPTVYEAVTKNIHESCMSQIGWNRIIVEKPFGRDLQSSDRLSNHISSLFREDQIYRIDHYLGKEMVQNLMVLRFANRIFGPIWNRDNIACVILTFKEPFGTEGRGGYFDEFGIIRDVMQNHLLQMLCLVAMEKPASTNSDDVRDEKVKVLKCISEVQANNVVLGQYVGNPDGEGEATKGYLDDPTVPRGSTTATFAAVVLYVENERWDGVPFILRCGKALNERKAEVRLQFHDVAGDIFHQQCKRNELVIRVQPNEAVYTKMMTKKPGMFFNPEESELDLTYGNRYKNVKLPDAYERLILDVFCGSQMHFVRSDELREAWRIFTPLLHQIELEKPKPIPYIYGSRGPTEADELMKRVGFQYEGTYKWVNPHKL

[12] = biological target: T1, Apoptotic protease-activating factor 1 (Homo sapiens, UniProt O14727); type: functional
T1 sequence (O14727 whole entry): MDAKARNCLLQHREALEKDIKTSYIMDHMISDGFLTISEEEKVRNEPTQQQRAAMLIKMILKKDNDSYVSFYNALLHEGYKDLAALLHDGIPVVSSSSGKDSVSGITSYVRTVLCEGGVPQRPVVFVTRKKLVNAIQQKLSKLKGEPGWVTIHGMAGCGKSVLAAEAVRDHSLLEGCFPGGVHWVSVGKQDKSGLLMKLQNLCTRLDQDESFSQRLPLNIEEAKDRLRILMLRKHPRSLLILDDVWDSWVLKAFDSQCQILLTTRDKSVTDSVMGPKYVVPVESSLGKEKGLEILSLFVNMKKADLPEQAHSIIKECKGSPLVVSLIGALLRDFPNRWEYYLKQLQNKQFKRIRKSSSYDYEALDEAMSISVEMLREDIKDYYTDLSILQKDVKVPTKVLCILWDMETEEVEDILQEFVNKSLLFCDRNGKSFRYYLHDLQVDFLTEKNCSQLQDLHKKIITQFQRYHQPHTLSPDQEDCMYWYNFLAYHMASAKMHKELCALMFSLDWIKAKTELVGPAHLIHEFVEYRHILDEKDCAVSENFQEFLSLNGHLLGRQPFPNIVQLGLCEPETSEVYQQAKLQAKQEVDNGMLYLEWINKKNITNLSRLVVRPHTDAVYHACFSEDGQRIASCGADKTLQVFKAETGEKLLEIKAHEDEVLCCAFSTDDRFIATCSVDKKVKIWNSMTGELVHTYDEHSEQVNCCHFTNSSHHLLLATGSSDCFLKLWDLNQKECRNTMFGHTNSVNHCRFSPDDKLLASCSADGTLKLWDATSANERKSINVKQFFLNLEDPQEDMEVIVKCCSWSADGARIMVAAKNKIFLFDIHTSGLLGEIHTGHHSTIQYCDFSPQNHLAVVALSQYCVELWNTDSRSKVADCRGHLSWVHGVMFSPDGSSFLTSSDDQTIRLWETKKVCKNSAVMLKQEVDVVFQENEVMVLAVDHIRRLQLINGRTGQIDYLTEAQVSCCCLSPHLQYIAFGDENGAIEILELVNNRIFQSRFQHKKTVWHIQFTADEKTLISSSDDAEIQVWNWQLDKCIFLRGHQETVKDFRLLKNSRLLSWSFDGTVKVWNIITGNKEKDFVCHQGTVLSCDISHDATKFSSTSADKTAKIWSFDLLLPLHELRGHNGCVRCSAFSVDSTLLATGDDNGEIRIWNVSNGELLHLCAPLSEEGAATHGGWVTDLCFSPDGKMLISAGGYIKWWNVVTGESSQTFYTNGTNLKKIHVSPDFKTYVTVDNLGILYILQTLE

[13] = NIH-3T3 fibroblast cytotoxicity, dose response, cytotoxicity control, cell-based, fluorescence, Alamar Blue, secondary assay (AID 2327); type: functional;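 also: NIH-3T3 mouse fibroblasts cultured with fluconazole at 8 µg/mL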
[14] = fluconazole-exposed Candida albicans growth modulators – fluorescence, retest, confirmation (AID 2467); type: functional, cell-based
[15] = biological target: Heat shock protein HSP 90-alpha (Homo sapiens, UniProt P07900); type: functional, organism-based
[16] = A549 cell cytotoxicity, dose response, cytotoxicity control, plate reader, cherry-pick, antagonist series (AID 743412); type: functional, cell-based
[17] = blockers of bursicon-stimulated LGR2 cAMP reporter – cell-based, HEK293, CRE-luciferase reporter, cherry pick, set 2, dose response (AID 743343); type: functional;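 also: transfected cells were stimulated with diluted bursicon conditioned medium after compound addition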
[18] = blockade of melanocortin 4 receptor signaling – cell-based, plate reader, cherry pick, counter-screen for LGR2 antagonist project, dose response (AID 743444); type: functional;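 also: transfected HEK 293 cells stimulated with alpha-MSH peptide; potency of inhibitors of the alpha-MSH evoked signal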
[19] = biological target: T2, High affinity choline transporter 1 (Homo sapiens, UniProt Q9GZV3); experiment: human choline transporter blockers, potency – cell-based, 5-point CRC, membrane potential dye, dose response (AID 504840); type: functional
T2 sequence (Q9GZV3 whole entry): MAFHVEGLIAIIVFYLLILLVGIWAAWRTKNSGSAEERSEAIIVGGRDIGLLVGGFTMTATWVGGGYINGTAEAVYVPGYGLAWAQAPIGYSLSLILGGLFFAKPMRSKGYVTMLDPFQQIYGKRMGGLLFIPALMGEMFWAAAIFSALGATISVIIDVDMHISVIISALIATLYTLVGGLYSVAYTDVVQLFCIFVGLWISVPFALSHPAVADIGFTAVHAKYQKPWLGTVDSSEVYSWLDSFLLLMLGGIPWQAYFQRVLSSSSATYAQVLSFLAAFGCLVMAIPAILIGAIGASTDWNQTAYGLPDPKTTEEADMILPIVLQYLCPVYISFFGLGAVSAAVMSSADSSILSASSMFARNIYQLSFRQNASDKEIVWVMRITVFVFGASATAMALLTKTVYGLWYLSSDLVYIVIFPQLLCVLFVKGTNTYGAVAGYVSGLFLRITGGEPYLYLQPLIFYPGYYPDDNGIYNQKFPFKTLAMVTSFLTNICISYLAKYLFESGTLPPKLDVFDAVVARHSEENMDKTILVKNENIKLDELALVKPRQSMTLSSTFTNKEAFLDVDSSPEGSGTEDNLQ

[20] = biological target: T3, Caspase-6 (Homo sapiens, UniProt P55212); experiment: inhibition of CASP6 peptide cleavage – biochemical, VEID-R110 fluorescence, cherry-pick, dose response (AID 720632)
T3 sequence (P55212 whole entry): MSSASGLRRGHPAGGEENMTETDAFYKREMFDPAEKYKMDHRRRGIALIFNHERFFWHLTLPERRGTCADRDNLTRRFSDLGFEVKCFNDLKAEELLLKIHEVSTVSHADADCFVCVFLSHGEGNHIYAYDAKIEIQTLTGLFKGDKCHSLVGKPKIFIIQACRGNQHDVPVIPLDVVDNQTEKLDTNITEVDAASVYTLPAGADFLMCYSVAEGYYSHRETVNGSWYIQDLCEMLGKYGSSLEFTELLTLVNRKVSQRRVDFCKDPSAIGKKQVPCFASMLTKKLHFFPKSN

[21] = biological target: T4, Microphthalmia-associated transcription factor (Homo sapiens, UniProt O75030); experiment: reducers of TRPM1 reporter luminescence, concentration series – cell-based, SK-MEL-5, cherry-picked, set 3, MITF inhibitor project, dose response (AID 493073); type: functional;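 also: SK-MEL-5 melanoma cells with luciferase driven by the MITF target TRPM1 promoter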
T4 sequence (O75030 whole entry): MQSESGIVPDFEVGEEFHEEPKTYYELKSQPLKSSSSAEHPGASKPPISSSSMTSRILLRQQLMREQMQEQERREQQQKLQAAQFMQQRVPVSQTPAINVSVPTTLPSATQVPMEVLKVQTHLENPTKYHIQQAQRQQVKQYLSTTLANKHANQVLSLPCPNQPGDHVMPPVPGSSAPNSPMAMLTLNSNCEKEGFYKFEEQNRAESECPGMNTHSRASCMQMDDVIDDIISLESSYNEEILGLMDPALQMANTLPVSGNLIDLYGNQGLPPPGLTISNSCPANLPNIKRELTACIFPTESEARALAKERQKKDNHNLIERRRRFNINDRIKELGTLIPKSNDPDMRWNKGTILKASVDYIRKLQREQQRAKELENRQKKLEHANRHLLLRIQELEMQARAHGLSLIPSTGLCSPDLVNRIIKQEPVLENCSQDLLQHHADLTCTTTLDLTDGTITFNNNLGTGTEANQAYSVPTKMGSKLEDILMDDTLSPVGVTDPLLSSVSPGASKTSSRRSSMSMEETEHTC

[22] = Luminescence Cell-Based Dose Response HTS to Identify Inhibitors of 5'UTR Stem-Loop Driven Prion Protein mRNA Translation in H4 Neuroglioblastoma Cells. [Related pubchem assays: 1827 (Project Summary), 1813 (Primary HTS)]; type: functional
[23] = alpha-synuclein stem-loop luciferase translation blockers – H4 neuroglioma cells, luminescence, confirmation (AID 1988); type: functional, cell-based

Chain of Genome polyprotein (P29990 2492-3391 limits assumed): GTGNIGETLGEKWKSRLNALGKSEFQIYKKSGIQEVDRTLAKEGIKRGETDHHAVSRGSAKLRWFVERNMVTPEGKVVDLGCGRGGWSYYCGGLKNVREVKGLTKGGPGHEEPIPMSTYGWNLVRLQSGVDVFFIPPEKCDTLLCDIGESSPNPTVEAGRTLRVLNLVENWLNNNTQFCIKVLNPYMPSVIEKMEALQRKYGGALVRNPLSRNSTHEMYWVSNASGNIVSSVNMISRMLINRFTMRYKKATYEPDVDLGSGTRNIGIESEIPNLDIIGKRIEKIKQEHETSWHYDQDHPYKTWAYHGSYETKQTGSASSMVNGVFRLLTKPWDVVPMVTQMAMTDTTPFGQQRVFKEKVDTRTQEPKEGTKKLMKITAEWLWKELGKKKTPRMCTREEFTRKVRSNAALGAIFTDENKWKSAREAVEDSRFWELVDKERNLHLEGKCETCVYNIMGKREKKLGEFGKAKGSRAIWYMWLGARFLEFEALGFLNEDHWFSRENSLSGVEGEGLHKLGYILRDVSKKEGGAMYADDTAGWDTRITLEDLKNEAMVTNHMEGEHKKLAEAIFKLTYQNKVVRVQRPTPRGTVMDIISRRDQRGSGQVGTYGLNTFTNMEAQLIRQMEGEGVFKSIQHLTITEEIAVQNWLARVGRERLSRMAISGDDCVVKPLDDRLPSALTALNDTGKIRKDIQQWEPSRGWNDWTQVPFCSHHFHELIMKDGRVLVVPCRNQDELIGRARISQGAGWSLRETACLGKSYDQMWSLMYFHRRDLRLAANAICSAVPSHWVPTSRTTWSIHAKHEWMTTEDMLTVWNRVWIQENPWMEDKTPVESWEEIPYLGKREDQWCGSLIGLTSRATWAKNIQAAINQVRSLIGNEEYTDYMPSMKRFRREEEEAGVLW

## COc1cc(/C=C2/SC(=S)N(CC(=O)O)C2=O)ccc1OC(=O)c1cccs1
[1]
  IC50: 88.3 µM (active)

## Cc1ccccc1C(=O)N1CCN(c2ccc(NC(=O)c3cccs3)cc2)CC1
[2]
  AC50: 0.788 µM (active)

## Cc1ccc(S(=O)(=O)Oc2ccccc2C=C2C(=O)N(C)C(=O)N(C)C2=O)cc1
[1]
  IC50: 37.8 µM (active)

## CC(C)c1ccc(N2C(=O)C(Cl)=C(N3CCOCC3)C2=O)cc1
[1]
  IC50: 69.4 µM (active)

## CC(=O)C1(C)CCC2C3C=C(C)C4=CC(=O)CCC4(C)C3CCC21C (stereo not given)
[3]
  AC50: 9.83 µM (active)
[4]
  AC50: 45.2 µM (active)
[5]
  AC50: 29.1 µM (active)

## O=C(Nc1ccc(Br)cc1)c1ccc(F)c(S(=O)(=O)NCc2cccs2)c1
[3]
  AC50: 3.05 µM (active)
[4]
  AC50: 4.35 µM (active)
[5]
  AC50: 6.05 µM (active)

## CC(C)CC#Cc1ccc2c(c1)O[C@H](CN(C)S(=O)(=O)c1ccc(F)cc1)[C@H](C)CN([C@H](C)CO)S2(=O)=O
[6]
  AC50: 14.5 µM (active)
[7]
  AC50: 31.9 µM (active)
[8]
  AC50: 61.2 µM (active)
[9]
  AC50: 57.1 µM (active)

## C(=NNc1ccc2ccccc2n1)c1ccccn1
[6]
  AC50: 2.95 µM (active)
[8]
  AC50: 58.9 µM (active)

## COc1ccc(C(=O)Nc2ccc(N3CCN(C(=O)c4ccccc4C)CC3)cc2)cc1
[2]
  AC50: 4.67 µM (active)

## CCCSc1nnc(CSc2nc3ccccc3s2)n1-c1ccccc1
[10]
  AC50: 2.8 µM (active)
[3]
  AC50: 7.05 µM (active)
[4]
  AC50: > 70 µM (inactive)
[5]
  AC50: 22.7 µM (active)

## CCOC(=O)c1c(C)n(-c2ccc(C)cc2)c2c(C(C(C)=O)C(=O)O)c(Br)c(O)c(O)c12 (stereo not given)
[11]
  IC50: 26.5 µM (inactive)
[12]
  IC50: 12.3 µM (active)

## COCC(=O)N1CCC(Oc2ccc(C(=O)N3C[C@H]4CC[C@H]3C4)cc2)CC1
[2]
  AC50: > 350 µM (inactive)

## CCc1ccc(OCC(=O)NNC(=S)NC(=O)C2CC2)c(Br)c1
[13]
  EC50: > 150 µM (inactive)
[14]
  EC50: 1.61 µM (active)
[15]
  AC50: 0.978 µM (active)

## CSc1nnc(NC(=O)c2ccc3c(c2)OCO3)s1
[11]
  IC50: 22.5 µM (inactive)
[16]
  AC50: > 52 µM (inactive)
[17]
  AC50: 1.72 µM (active)
[18]
  AC50: 1.86 µM (active)

## O=C(Nc1ccccc1)N1CCCCN2[C@H](CO)[C@H](c3ccc(C#Cc4ccccc4)cc3)[C@H]2C1
[6]
  AC50: 16.8 µM (active)
[7]
  AC50: 20 µM (active)
[8]
  AC50: 35.5 µM (active)

## CCCn1c2ccccc2c2cnn(CC(=O)OC)c(=O)c21
[19]
  IC50: 15.8 µM (active)

## Fc1ccccc1CCNc1c2c(nc3ncnn13)CCCC2
[19]
  IC50: 13.8 µM (active)

## O=C(COC(=O)c1ccc([N+](=O)[O-])o1)Nc1ccc(Br)cc1F
[20]
  AC50: 40.1 µM (active)

## Cc1ccc(S(=O)(=O)[N-]C2=C(n3cc[n+](CCC(C)C)c3)C(=O)c3ccccc3C2=O)cc1
[21]
  AC50: 4.11 µM (active)
[12]
  IC50: 12.2 µM (active)

## O=C(O)c1ccccc1NS(=O)(=O)c1ccc(NN=Cc2ccccc2F)c([N+](=O)[O-])c1
[20]
  AC50: 19 µM (active)

## Oc1ccc(/N=C/c2c(O)ccc3ccccc23)cc1
[20]
  AC50: 10 µM (active)

## CNS(=O)(=O)c1ccc(-c2ccc(C=C3C(=O)NC(=O)NC3=O)o2)cc1
[11]
  IC50: 51.2 µM (inactive)

## O=C1NC(=O)/C(=C\c2ccc(OCc3cccc(C(=O)O)c3)c(Cl)c2)N1
[22]
  EC50: 10.6 µM (active)
[23]
  EC50: 9.49 µM (inconclusive)
[2]
  AC50: 6.47 µM (active)
